Several values for one entry are separate records, joined by “and”; a condition that tells them apart may be missing. Equal entries are not always repeated. Inconclusive results and toxic doses are left out. No stated cut-off is given here; in the data, active means T/C of 150% or more; inactive means T/C below 125%.
System: L1210 leukemia ip in BDF1 mice, survival T/C
Assay: NCI In Vivo Anticancer Drug Screen. Data for tumor model L1210 Leukemia (intraperitoneal) in B6D2F1 (BDF1) mice
Conditions: endpoint: mean survival time, higher = longer survival
Method in brief: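 Read-out is survival time, reported as the treated-group measurement over the vehicle-control measurement.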

[1] = dose: 100.0 mg/kg/injection, schedule: Q01DX001 (ip), vehicle: carboxymethylcellulose (CMC)
[2] = dose: 200.0 mg/kg/injection, schedule: Q01DX001 (ip), vehicle: carboxymethylcellulose (CMC)
[3] = dose: 400.0 mg/kg/injection, schedule: Q01DX001 (ip), vehicle: carboxymethylcellulose (CMC)
[4] = dose: 100.0 mg/kg/injection, schedule: Q04DX003 (ip), vehicle: saline
[5] = dose: 100.0 mg/kg/injection, schedule: Q01DX009 (ip), vehicle: saline with Tween-80
[6] = dose: 200.0 mg/kg/injection, schedule: Q01DX009 (ip), vehicle: saline with Tween-80
[7] = dose: 400.0 mg/kg/injection, schedule: Q01DX009 (ip), vehicle: saline with Tween-80
[8] = dose: 100.0 mg/kg/injection, schedule: Q01DX009 (ip), vehicle: Klucel (hydroxypropylcellulose) (HPC)
[9] = dose: 100.0 mg/kg/injection, schedule: Q04DX003 (ip), vehicle: Klucel (hydroxypropylcellulose) (HPC)
[10] = dose: 200.0 mg/kg/injection, schedule: Q01DX009 (ip), vehicle: Klucel (hydroxypropylcellulose) (HPC)
[11] = dose: 200.0 mg/kg/injection, schedule: Q04DX003 (ip), vehicle: Klucel (hydroxypropylcellulose) (HPC)
[12] = dose: 400.0 mg/kg/injection, schedule: Q01DX009 (ip), vehicle: Klucel (hydroxypropylcellulose) (HPC)
[13] = dose: 400.0 mg/kg/injection, schedule: Q04DX003 (ip), vehicle: Klucel (hydroxypropylcellulose) (HPC)
[14] = dose: 75.0 mg/kg/injection, schedule: Q01DX001 (ip), vehicle: other
[15] = dose: 150.0 mg/kg/injection, schedule: Q01DX001 (ip), vehicle: other
[16] = dose: 200.0 mg/kg/injection, schedule: Q04DX003 (ip), vehicle: saline with Tween-80

Measured: T/C

CC1CC(C)CC(C)C(O)/C(C#N)=C/C=C/CC(C2CCCC2C(=O)O)OC(=O)CC(O)C(C)C1 (centres undefined)
inactive: dose: 0.5 mg/kg/injection, schedule: Q01DX009 (ip), vehicle: saline with Tween-80 98 % of control | dose: 1.0 mg/kg/injection, schedule: Q01DX009 (ip), vehicle: saline with Tween-80 104 % of control | dose: 2.0 mg/kg/injection, schedule: Q01DX009 (ip), vehicle: saline with Tween-80 96 % of control

Cc1ccc(S(=O)(=O)S/C(=N\c2ccccn2)Nc2ccccn2)cc1
inactive: [1] 98 % of control | [2] 93 % of control | [3] 91 % of control

Cn1c(N)c(N=Nc2ccc(S(=O)(=O)Nc3nccs3)cc2)c(=O)n(C)c1=O
inactive: [1] 102 % of control | [2] 96 % of control | [3] 90 % of control

N=C(N)SCc1cccc([N+](=O)[O-])c1
inactive: dose: 25.0 mg/kg/injection, schedule: Q04DX002 (ip), vehicle: saline with Tween-80 102 % of control | dose: 50.0 mg/kg/injection, schedule: Q04DX002 (ip), vehicle: saline with Tween-80 102 % of control

CCS(=O)(=O)Nc1cccc(Nc2c3cccc(C)c3nc3c(C)cccc23)c1OC
active: dose: 12.5 mg/kg/injection, schedule: Q01DX009 (ip), vehicle: saline with Tween-80 155 % of control | dose: 25.0 mg/kg/injection, schedule: Q01DX009 (ip), vehicle: saline with Tween-80 181 % of control | dose: 50.0 mg/kg/injection, schedule: Q04DX003 (ip), vehicle: saline 157 % of control | [4] 170 % of control
inactive: dose: 5.5 mg/kg/injection, schedule: Q01DX009 (ip), vehicle: saline 122 % of control | dose: 11.0 mg/kg/injection, schedule: Q04DX003 (ip), vehicle: saline 113 % of control | dose: 12.5 mg/kg/injection, schedule: Q01DX009 (sc), vehicle: Klucel (hydroxypropylcellulose) (HPC) 112 % of control | dose: 16.0 mg/kg/injection, schedule: Q04DX003 (ip), vehicle: saline 114 % of control | dose: 25.0 mg/kg/injection, schedule: Q01DX009 (sc), vehicle: Klucel (hydroxypropylcellulose) (HPC) 123 % of control | dose: 50.0 mg/kg/injection, schedule: Q01DX009 (ip), vehicle: saline with Tween-80 103 % of control

CCN(CC)CCN(C)CC(=O)Nc1ccccc1C
inactive: dose: 75.0 mg/kg/injection, schedule: Q01DX001 (ip), vehicle: saline 100 % of control | dose: 150.0 mg/kg/injection, schedule: Q01DX001 (ip), vehicle: saline 103 % of control | dose: 300.0 mg/kg/injection, schedule: Q01DX001 (ip), vehicle: saline 101 % of control

COc1ccc2c(c1OC)C1(CCN(C)C#N)CCCCC1CC2 (centres undefined)
inactive: dose: 100.0 mg/kg/injection, schedule: Q01DX001 (ip), vehicle: Klucel (hydroxypropylcellulose) (HPC) 95 % of control | dose: 200.0 mg/kg/injection, schedule: Q01DX001 (ip), vehicle: Klucel (hydroxypropylcellulose) (HPC) 95 % of control | dose: 400.0 mg/kg/injection, schedule: Q01DX001 (ip), vehicle: Klucel (hydroxypropylcellulose) (HPC) 86 % of control

COC(=O)C1(C)CCCC2(C)C1CCC13OCC(CC21)C(=C(C)C)C3OC(C)=O (centres undefined)
inactive: [5] 93 % of control | [6] 88 % of control | [7] 90 % of control

CCOc1ccc(NC(=O)COc2ccc(Cl)cc2)cc1
inactive: [8] 88 % of control | [9] 93 % of control | [10] 92 % of control | [11] 101 % of control | [12] 87 % of control | [13] 101 % of control

Cn1ncc2c(N(N)CCO)nc(-c3ccc([N+](=O)[O-])o3)nc21
inactive: dose: 50.0 mg/kg/injection, schedule: Q01DX001 (ip), vehicle: saline 108 % of control | dose: 100.0 mg/kg/injection, schedule: Q01DX001 (ip), vehicle: saline 108 % of control | dose: 200.0 mg/kg/injection, schedule: Q01DX001 (ip), vehicle: saline 104 % of control | dose: 400.0 mg/kg/injection, schedule: Q01DX001 (ip), vehicle: saline 117 % of control

O=c1c(N=Nc2ccc(Cl)cc2)c(O)n(-c2ccccc2)c(=S)n1-c1ccccc1
inactive: dose: 37.5 mg/kg/injection, schedule: Q01DX001 (ip), vehicle: other 94 % of control | [14] 107 % of control | [15] 96 % of control

CCOC(OCC)c1nc(NC(C)=O)[nH]c(=O)c1CCCCc1ccccc1
inactive: dose: 200.0 mg/kg/injection, schedule: Q01DX001 (ip), vehicle: saline with Tween-80 88 % of control | dose: 400.0 mg/kg/injection, schedule: Q01DX001 (ip), vehicle: saline with Tween-80 91 % of control

CN(C)c1ccc(/C=C2/CCCCC2=O)cc1
inactive: [8] 98 % of control | [9] 93 % of control | [10] 109 % of control | [11] 103 % of control | [12] 96 % of control | [13] 103 % of control

CCOC(=O)C(C#N)C(C)CC#N (centres undefined)
inactive: [5] 119 % of control | [6] 117 % of control | [7] 108 % of control

O=C(O)C(Br)CCCCC(Br)C(=O)O (centres undefined)
inactive: dose: 100.0 mg/kg/injection, schedule: Q01DX001 (ip), vehicle: steriod suspending solution 105 % of control | dose: 200.0 mg/kg/injection, schedule: Q01DX001 (ip), vehicle: steriod suspending solution 97 % of control | dose: 400.0 mg/kg/injection, schedule: Q01DX001 (ip), vehicle: steriod suspending solution 105 % of control

CCOC(=O)C(/C=N/C(N)=O)=C(\C)O
inactive: [8] 105 % of control | [9] 102 % of control | [10] 95 % of control | [11] 101 % of control | [12] 106 % of control | [13] 92 % of control

Cn1[nH]nnc1=S
inactive: dose: 100.0 mg/kg/injection, schedule: Q04DX003 (ip), vehicle: saline with Tween-80 97 % of control | [16] 112 % of control

CCN(CC#N)c1ccc(Nc2cc(Cl)ccc2Cl)cc1
inactive: [14] 107 % of control | [15] 96 % of control | dose: 300.0 mg/kg/injection, schedule: Q01DX001 (ip), vehicle: other 100 % of control

COC(=O)C(C)NCc1ccccc1 (centres undefined)
inactive: dose: 100.0 mg/kg/injection, schedule: Q01DX009 (ip), vehicle: saline 95 % of control | [4] 107 % of control | dose: 200.0 mg/kg/injection, schedule: Q01DX009 (ip), vehicle: saline 100 % of control | dose: 200.0 mg/kg/injection, schedule: Q04DX003 (ip), vehicle: saline 107 % of control | dose: 400.0 mg/kg/injection, schedule: Q01DX009 (ip), vehicle: saline 100 % of control | dose: 400.0 mg/kg/injection, schedule: Q04DX003 (ip), vehicle: saline 102 % of control

NS(=O)(=O)c1ccccc1
inactive: dose: 100.0 mg/kg/injection, schedule: Q04DX002 (ip), vehicle: saline 105 % of control | [9] 101 % of control | dose: 200.0 mg/kg/injection, schedule: Q04DX002 (ip), vehicle: saline 105 % of control | [11] 103 % of control | dose: 400.0 mg/kg/injection, schedule: Q04DX002 (ip), vehicle: saline 109 % of control | [13] 92 % of control

COc1cc(-c2nc(-c3ccc(N=Cc4ccc(N(CCOS(C)(=O)=O)CCOS(C)(=O)=O)cc4C)cc3)cs2)cc(OC)c1OC
inactive: dose: 25.0 mg/kg/injection, schedule: Q04DX003 (ip), vehicle: saline with Tween-80 102 % of control | dose: 50.0 mg/kg/injection, schedule: Q04DX003 (ip), vehicle: saline with Tween-80 102 % of control | dose: 66.0 mg/kg/injection, schedule: Q04DX003 (ip), vehicle: saline with Tween-80 115 % of control and 120 % of control | dose: 150.0 mg/kg/injection, schedule: Q04DX003 (ip), vehicle: saline with Tween-80 96 % of control and 89 % of control | [16] 110 % of control

O=NN(CCF)C(=O)NC1CCSc2ccccc21 (centres undefined)
active: dose: 20.0 mg/kg/injection, schedule: Q01DX001 (ip), vehicle: other 161 % of control | dose: 30.0 mg/kg/injection, schedule: Q01DX001 (ip), vehicle: other 289 % of control
inactive: dose: 6.0 mg/kg/injection, schedule: Q01DX001 (ip), vehicle: other 109 % of control | dose: 9.0 mg/kg/injection, schedule: Q01DX001 (ip), vehicle: other 120 % of control

— PubChem BioAssay AID248 (DTP/NCI, 2004)
